Assay results published in patent US20220273757A1, “METHODS FOR ADMINISTERING ANGIOTENSIN II BY […] LEVELS” (La Jolla Pharma, LLC, priority 2019, published 2022).
“And” between values parts separate entries of the source, which are not always exact repeats. Identical values can stand only once.

Legend:
Assay type in all cases: in vivo, human
patients with severe AKI = test: Renal recovery in patients with severe AKI by serum renin levels, ATHOS-3; conditions: first 7 days
Description: (§1) The Angiotensin II for the Treatment of High-Output Shock 3 (ATHOS-3) study has been previously described—NCT02338843. In brief, adults with vasodilatory shock despite volume resuscitation with ≥25 mL/kg and high-dose vasopressors (defined as a norepinephrine equivalent [NED] of greater than 0.2 mcg/kg/min) were randomly assigned 1:1 to receive synthetic human angiotensin II (La Jolla Pharmaceutical Company, San Diego, Calif.) or saline placebo plus standard vasopressors. Randomization was stratified according to MAP at screening and Acute Physiology and Chronic Health Evaluation II (APACHE II) score.
(§2) Study drug infusion started at 20 ng/kg/min and was adjusted during the first 3 hours to increase the MAP to ≥75 mm Hg while keeping other vasopressors constant. Thereafter, the study drug and other vasopressors were adjusted at the discretion of the treating ICU team to maintain a MAP between 65 and 75 mm Hg. At 48 hours, the infusion was discontinued according to a protocol-specified tapering process. However, continuation was allowed for up to 7 days at the discretion of the ICU team.
Descriptive statistics with 95% confidence intervals (CIs) were used to summarize data according to treatment group. Differences between treatment groups were identified using the Wilcoxon rank-sum test or analysis of variance for continuous or ordinal variables and the chi-square or Fisher's exact test for discrete variables. Time-to-event data was summarized, including survival, using Kaplan-Meier estimates and compared them by log-rank test. Hazard ratios (HRs) are estimated from a proportional hazards model. A two-sided alpha level of 0.05 was used to test for differences in treatment outcomes without adjustments for multiplicity. Correlation coefficients were calculated for renin versus angiotensin I and the angiotensin I/II ratio. Correlation coefficients were also calculated for renin versus angiotensin I for hour 0 (baseline) and hour 3. […]

serum renin = test: Serum renin concentration at baseline and hour 3 (DRG Renin ELISA), ATHOS-3 patients
Description: as §1, §2
(§3) Serum concentrations of renin, angiotensin I, and angiotensin II were measured after randomization but prior to administration of the study drug and at 3 hours after initiation of study drug.
Serum renin was measured with the DRG Renin ELISA Kit (DRG Instruments GmbH, Marburg, Germany). The DRG ELISA Kit is a solid-phase enzyme-linked immunosorbent assay based on the sandwich principle. The microtiter wells are coated with a monoclonal (mouse) antibody directed toward a unique antigenic site of the human active renin molecule. An aliquot of patient sample containing endogenous renin is rapidly thawed in a water bath and incubated in the coated well together with assay buffer. After incubation, unbound components are washed off. Finally, enzyme conjugate, a monoclonal anti-renin antibody conjugated with horseradish peroxidase, is added. After incubation, unbound enzyme conjugate is washed off. The amount of bound peroxidase is proportional to the concentration of renin in the sample. Having added the substrate solution, the intensity of color developed is proportional to the concentration of active renin in the patient sample. Personnel who conducted the assays were blinded to the study database and treatment allocation.

[1] = tested on: patients with catecholamine-resistant vasodilatory shock; test: MAP response at hour 3 by baseline renin, ATHOS-3
Description: as §1, §2

[2] = tested on: patients with catecholamine-resistant vasodilatory shock; test: Change in CV and total SOFA score from baseline to hour 48, ATHOS-3
Description: as §1, §2
(§4) Descriptive statistics with 95% confidence intervals (CIs) were used to summarize data according to treatment group. Differences between treatment groups were identified using the Wilcoxon rank-sum test or analysis of variance for continuous or ordinal variables and the chi-square or Fisher's exact test for discrete variables. Time-to-event data was summarized, including survival, using Kaplan-Meier estimates and compared them by log-rank test. Hazard ratios (HRs) are estimated from a proportional hazards model. A two-sided alpha level of 0.05 was used to test for differences in treatment outcomes without adjustments for multiplicity. Correlation coefficients were calculated for renin versus angiotensin I and the angiotensin I/II ratio. Correlation coefficients were also calculated for renin versus angiotensin I for hour 0 (baseline) and hour 3. For multivariate analyses, covariates that were utilized for study stratification (Model A), covariates that were different between groups defined by P<0.10 (Model B), and statistically significant covariates from Models A and B were included in a multivariate logistic regression (Model C). The dichotomized baseline covariates that were utilized for study stratification were MAP <65 mm Hg and APACHE II score >30.

[3] = tested on: patients with catecholamine-resistant vasodilatory shock; test: Ventilator liberation, RRT liberation and ICU discharge in ATHOS-3 by baseline renin
Description: as §1, §2, §4

[4] = tested on: patients with catecholamine-resistant vasodilatory shock; test: Adverse events, ATHOS-3 patients with elevated baseline renin; conditions: patients with elevated renin concentrations at baseline
Description: Safety was evaluated by assessment of treatment-emergent adverse events, serious adverse events, and adverse event-related drug discontinuations. Data were analyzed with the use of SAS software, version 9.4 (SAS Institute, Cary, N.C.) and R version 3.5.3. (R Foundation).

[5] = tested on: patients with catecholamine-resistant vasodilatory shock; test: 28-day mortality / survival in ATHOS-3 by baseline serum renin; conditions: for Hazard Ratio (95% CI), mortality, treatment arm: patients with elevated baseline renin only; for unstratified hazard ratio, 28-day mortality, vs placebo: renin above study population median (high renin), N = 128, 95% CI 0.35-0.88
Description: as §1, §2, §4

angiotensin I = test: Serum angiotensin I level at baseline and hour 3, ATHOS-3 patients; conditions: hour 3; IQR 13.4%-65.1% reduction; placebo 8.1%
Description: as §1, §2, §3

[6] = renin above study population median, N = 55
[7] = renin above study population median, N = 55, listed as Angiotensin II
[8] = renin below study population median
[9] = renin below study population median, N = 64

## Asp-Arg-Val-Tyr-Ile-His-Pro-Phe [angiotensin II]
Patients with severe AKI; all patients with severe AKI, N = 105
  RR (95% CI), likelihood of renal recovery vs placebo: 2.902 (1.293-6.515)
Patients with severe AKI; severe AKI, renin above study median, N = 62
  RR (95% CI), likelihood of renal recovery vs placebo: 4.112 (1.376-12.29), 0.0061
Patients with severe AKI; severe AKI, renin below study median, N = 32
  RR (95% CI), likelihood of renal recovery vs placebo: 2.215 (0.429-11.42), 0.3295
Serum renin; 3 hours after initiation of therapy, IQR 37.9%-66.5% reduction, placebo 14.1%
  median reduction in renin concentration: 54.3%
Serum renin; N 102
  Renin % Change at Hour 3, Mean (SD): −45.5 (38.59) ^ %
  Renin % Change at Hour 3, Median (range): −54.8 (−91.1-161.0) %
  Renin Change at Hour 3, Mean (SD): −210.3 (307.43) ^
  Renin Change at Hour 3, Median (range): −99.6 (−1574-496.2)
Serum renin; N 103
  Hour 3 Renin, Mean (SD): 231.8 (416.91) ^
  Hour 3 Renin, Median (range): 85.0 (4.0-2739.8)
[1]; baseline renin <Pop Median, 57/73 patients
  MAP Response at Hour 3: 57/73 (78.1%)
[1]; baseline renin >=Pop Median, 39/64 patients
  MAP Response at Hour 3: 39/64 (60.9%)
[2]; elevated renin population, N = 54
  Hour 48 change from baseline in Total SOFA, Mean (SD): 1.35±6.032
[2]; elevated renin population, N = 54, listed as LJPC-501
  Hour 48 change from baseline in Total SOFA, Mean (SD): N = 54, 1.35 (6.032)
[2]; elevated renin population, N = 55
  Hour 48 change from baseline in CV SOFA, Mean (SD): −1.56±1.793
[2]; elevated renin population, N = 55, listed as LJPC-501
  Hour 48 change from baseline in CV SOFA, Mean (SD): N = 55, −1.56 (1.793)
[2]; low renin population, N = 62
  Hour 48 change from baseline in Total SOFA, Mean (SD): N = 62, 0.85 (5.524)
[2]; low renin population, N = 64
  Hour 48 change from baseline in CV SOFA, Mean (SD): N = 64, −1.77 (1.716)
[2]; total ATHOS-3 population, baseline to hour 48
  change in CV SOFA score compared to placebo: significantly greater
[3]; renin above study population median
  RRT Liberation by Day 7 (alive and RRT free): 43%
[3]; [6]
  ICU Discharge by Day 28: 44%
  Ventilator Liberation by Day 7 (alive and vent free): 28%
[3]; [7]
  ICU Discharge by Day 28: 44% (32%-58%)
  Ventilator Liberation by Day 7 (alive and vent free): 28% (18%-43%)
[3]; renin above study population median, listed as Angiotensin II
  RRT Liberation by Day 7 (alive and RRT free): 43% (25%-66%)
[3]; [8]
  RRT Liberation by Day 7 (alive and RRT free): 28% (13%-54%)
  ventilator and RRT liberation, ICU discharge: difference between treatment groups: no differences
[3]; [9]
  ICU Discharge by Day 28: 39% (28%-52%)
  Ventilator Liberation by Day 7 (alive and vent free): 27% (18%-40%)
[4]
  adverse events or serious adverse events vs placebo: no significant difference
[5]; Table 4A whole cohort, full model
  HR (95% CI), treatment arm, multivariate: 0.77 (0.54-1.08)
[5]; Table 4A whole cohort, step-wise model
  HR (95% CI), treatment arm, multivariate: 0.77 (0.54-1.08)
[5]; Table 4B population below median renin, full model
  HR (95% CI), treatment arm, multivariate: 1.08 (0.64-1.82)
[5]; Table 4B population below median renin, step-wise model
  HR (95% CI), treatment arm, multivariate: 1.11 (0.66-1.86)
[5]; Table 4C population above median renin, full model
  HR (95% CI), treatment arm, multivariate: 0.62 (0.39-0.98)
[5]; Table 4C population above median renin, step-wise model
  HR (95% CI), treatment arm, multivariate: 0.62 (0.39-0.98)
[5]; Table 4D whole cohort with treatment-renin interaction, full model
  HR (95% CI), treatment arm, multivariate: 1.08 (0.64-1.81)
[5]; Table 4D whole cohort, full model
  HR (95% CI), Treatment * Renin >= Population Median interaction: 0.54 (0.27-1.09)
[5]; Table 4D whole cohort, step-wise model
  HR (95% CI), treatment arm, multivariate: 0.77 (0.54-1.08)
[5]; baseline renin <Pop Median, N = 73
  Day 28 mortality: N = 73, 43.9%
[5]; baseline renin >=Pop Median, N = 64
  Day 28 mortality: N = 64, 50.1%
[5]; high renin cut-off 2x ULN
  HR, mortality sensitivity analysis: 0.69
[5]; high renin cut-off 3x ULN
  HR, mortality sensitivity analysis: 0.57
[5]; high renin cut-off 4x ULN
  HR, mortality sensitivity analysis: 0.63
[5]; high renin cut-off ULN
  HR, mortality sensitivity analysis: 0.76
[5]; high renin, AKI subset, N = 62
  HR (95% CI), survival, vs placebo: 0.51 (0.26-0.99), 0.0411
[5]; high renin, ARDS subset, N = 41
  HR (95% CI), survival, vs placebo: 0.49 (0.21-1.16), 0.0964
[5]; low renin, AKI subset, N = 32
  HR (95% CI), survival, vs placebo: 0.55 (0.19-1.58), 0.2574
[5]; low renin, ARDS subset, N = 34
  HR (95% CI), survival, vs placebo: 1.38 (0.59-3.26), 0.4583
[5]; low renin, all, N = 127
  HR (95% CI), survival, vs placebo: 1.11 (0.66-1.86), 0.7002
[5]; Model A
  Hazard Ratio (95% CI), mortality, treatment arm: 0.58 (0.36-0.93)
[5]; Model B
  Hazard Ratio (95% CI), mortality, treatment arm: 0.62 (0.38-0.99)
[5]; patients with renin above the study population median, N = 55, table gives (95% CI)
  28-day mortality: 50.9%
[5]; patients with renin above the study population median, N = 55, table gives (95% CI), listed as Angiotensin II
  28-day mortality: 51% (39%-65%)
[5]; patients with renin below the study population median, N = 64
  28-day mortality: 45% (34%-58%)
[5]; all
  unstratified hazard ratio, 28-day mortality, vs placebo: 0.56 and 0.556
[5]; all, listed as LJPC 501
  unstratified hazard ratio, 28-day mortality, vs placebo: 0.56 (0.35-0.88), 0.0115
[5]; results available data
  parameter estimate, treatment, Day 28 survival model: −0.298
[5]; serum renin below the study population median
  difference in 28-day mortality vs placebo: no statistically significant difference
[5]; with multiple imputation of missing serum renin
  parameter estimate, treatment, Day 28 survival model: −0.229
Angiotensin I
  median reduction in angiotensin I levels: 40.8%
